# In the OPERA property sets (Mansouri et al. 2018):
SMILES,boiling point [°C],log10 biodegradation half-life (days),melting point [°C],ready biodegradability,log10 Koc (L/kg),log10 vapour pressure (mmHg),log10 Koa,log10 Henry constant (atm·m³/mol)
CCCCCCCCCCCCCCCCCCCCCCCCCCCCCCCCCC,483,2.58,72.6,readily biodegradable,–,–,–,–
NC(=O)Nc1cccc(F)c1,–,–,–,–,1.77,–,–,–
N#Cc1ccccn1,224,–,29,–,–,–,–,–
OCc1cccc(O)c1,–,–,73,–,–,–,–,–
CC1=C[C@H]2O[C@@H]3[C@H](O)C[C@](C)([C@@]2(CO)[C@H](O)C1=O)[C@]31CO1,–,–,152,–,–,–,–,–
CCCC(=O)c1ccccc1,228,–,12,–,–,–,–,–
CCc1c(C)[nH]c2c1C(=O)C(CN1CCOCC1)CC2 (stereo not given),–,–,180,–,–,–,–,–
CCCCCCCCCCCCCCCCCC#N,362,–,41,–,–,–,–,–
ClCc1ccccc1Cl,217,–,-17,not readily biodegradable,–,–,–,–
O=C(Cl)CCc1ccccc1,–,–,-2,–,–,–,–,–
COc1cc(NS(=O)(=O)c2ccc(N)cc2)nc(OC)n1,–,–,204,–,–,–,–,–
O=c1cc(-c2ccccc2)oc2cc(O)ccc12,–,–,246,–,–,–,–,–
C#CCC(C)C,61.2,–,-105,–,–,–,–,–
CN(C)c1cccc(C(=O)O)c1,–,–,–,not readily biodegradable,–,–,–,–
Cc1c[nH]c(C)c1,168,–,–,–,–,–,–,–
Cc1cccc(O)c1C(=O)O,–,–,173,–,–,–,–,–
CCS(=O)(=O)CC,248,–,73.5,–,–,–,–,–
N=C(N)c1ccc(N)cc1,–,–,182,–,–,–,–,–
Cc1ccc([N+](=O)[O-])cc1C,251,–,30.5,–,–,-2.44,–,–
Cc1ccc2occc2c1,198,–,–,–,–,–,–,–
CN1CCN(C2=Nc3ccccc3Cc3ccccc32)CC1,–,–,137,–,–,–,–,–
O=c1occc2ccccc12,286,–,47,–,–,–,–,–

SMILES,boiling point [°C],log10 biodegradation half-life (days),melting point [°C],ready biodegradability,log10 Koc (L/kg),log10 vapour pressure (mmHg),log10 Koa,log10 Henry constant (atm·m³/mol)
CCCC(C)(O)C(C)(C)C (stereo not given),170,–,–,–,–,–,–,–
C[C@H]1C[C@@H]2[C@H]([C@@H](O)C[C@@]3(C)[C@H]2CC[C@]3(O)C(=O)CO)[C@@]2(C)C=CC(=O)C=C12,–,–,232,–,–,–,–,–
c1ccc(CNc2ccccc2)cc1,306,–,37.5,–,–,–,–,–
O=C(O)C(Cl)=C(Cl)Cl,222,–,76,–,–,–,–,–
C[C@@H](O)C(=O)c1ccccc1,251,–,–,–,–,–,–,–
C=CCSC,92,–,–,–,–,–,–,–
C=CCCC(=O)O,188,–,-22.5,–,–,–,–,–
Fc1cccc(F)c1-c1nnc(-c2ccccc2Cl)nn1,–,–,188,–,–,–,–,–
C#CC(C)(C)NC(=O)c1ccc(F)cc1,–,–,–,–,1.68,–,–,–
O=[N+]([O-])c1ccc(CCc2ccc([N+](=O)[O-])cc2)cc1,–,–,181,–,–,–,–,–
C[C@H](CCC(=O)O)[C@H]1CC[C@H]2[C@@H]3CC[C@@H]4C[C@H](O)CC[C@]4(C)[C@H]3C[C@H](O)[C@]12C,–,–,177,–,–,–,–,–
Nc1c(Br)cc(Br)cc1Br,300,–,122,–,–,–,–,–
Cc1cc(O)c(C(C)(C)C)cc1C(C)CC(c1cc(C(C)(C)C)c(O)cc1C)c1cc(C(C)(C)C)c(O)cc1C (stereo not given),–,–,186,–,–,–,–,–
CC(=O)NS(=O)(=O)c1ccc(N)cc1,–,–,183,–,–,–,–,–
COc1ccccc1NC(C)=O,304,–,87.5,–,–,–,–,–
Cc1ccc2oc(C)nc2c1,218,–,–,–,–,–,–,–
CCC(CC)CC,93.5,0.602,-119,–,–,1.76,–,–
Cc1c(C2(c3cc(C(C)C)c(O)c(Br)c3C)OS(=O)(=O)c3ccccc32)cc(C(C)C)c(O)c1Br,–,–,201,–,–,–,–,–
CCOC(=O)CCN(Cc1ccccc1)SN(C)C(=O)O/N=C(/C)SC,–,–,47,–,–,-7.46,–,–
Clc1cc(Cl)c2c(Cl)cc(Cl)cc2c1,–,–,–,–,–,–,8.28,–
CCc1ccc(-c2ccccc2)cc1,–,–,–,not readily biodegradable,–,–,–,–
Oc1cc(Cl)c(Cl)c(Cl)c1Cl,–,–,116,–,4.12,–,–,–

SMILES,boiling point [°C],log10 biodegradation half-life (days),melting point [°C],ready biodegradability,log10 Koc (L/kg),log10 vapour pressure (mmHg),log10 Koa,log10 Henry constant (atm·m³/mol)
CN1C(=O)CCS(=O)(=O)C1c1ccc(Cl)cc1 (stereo not given),–,–,116,–,–,–,–,–
Clc1cccc(-c2cc(Cl)cc(Cl)c2)c1,–,–,–,–,–,–,–,-3.77
Clc1ccc2ccccc2n1,266,–,38,–,–,–,–,–
O=C(O)c1cccc2c(Cl)cccc12,–,–,245,–,–,–,–,–
OCc1cc(O)ccc1O,–,–,100,–,–,–,–,–
Cc1cccc2[nH]ccc12,267,–,5,–,–,–,–,–
O=C(ON=C1C=CC(=NOC(=O)c2ccccc2)C=C1)c1ccccc1,–,–,–,not readily biodegradable,–,–,–,–
CC1C=CCCC1 (stereo not given),103,–,–,–,–,1.54,–,–
CC1CCC(C)C1 (stereo not given),–,0.602,–,–,–,–,–,–
CCCCI,131,–,-103,–,–,1.14,–,–
COc1cc2c(cc1O)CCN[C@@H]2C,–,–,222,–,–,–,–,–
O=Cc1ccc[nH]1,218,–,46.5,–,–,–,–,–
O=[N+]([O-])c1ccsc1,225,–,78.5,–,–,–,–,–
O=C(c1ccccc1)C1CC1,–,–,-7.9,–,–,–,–,–
C=Cc1ccc(Br)cc1,212,–,7.7,–,–,-0.108,–,–
SCc1ccccc1,194,–,-30,–,–,-0.384,–,–
CC(C)CC(=O)OC(C)C,142,–,–,–,–,–,–,–
CC=CC(C)C,58.8,–,-130,–,–,–,–,–
O=C1CCC(=O)N1c1ccccc1,400,–,156,–,–,–,–,–
CCOC(=O)c1sc(N)nc1C(F)(F)F,–,–,186,–,–,–,–,–
